# Patent EP4810486A1, “CRYSTAL OF HETEROCYCLIC DERIVATIVE” (Nippon Shinyaku Co., Ltd., priority 2023, dated 2025)
# Key:
# Type in all cases: physicochemical
# [1] = Stability evaluation on exposure to heating, light or humidifying stimulus (HPLC)
# Experimental: The Form-I crystal of the p-TsOH salt of the compound A and the free form crystal of the compound A prepared according to the method described in PATENT DOCUMENT 1 were exposed to heating stimulus (allowed to stand at 60°C for 24 hours), light stimulus (light source: D65 lamp, total intensity: 1.2 million lx·hr), or humidifying stimulus (allowed to stand at 30°C and a relative humidity of 90% for 24 hours), and the stability thereof was evaluated based on the percentage (%) of the area of the peak of the free form of the compound A or the Form-I crystal of the p-TsOH salt of the compound A in the observed peaks in HPLC with and without exposure to the stimuli.
# [2] = Stability test of Form-III crystal at 40°C and 75% relative humidity; settings: relative humidity 75%
# Experimental: About 10 mg of the Form-III crystal of the p-TsOH salt of the compound A obtained in Example 2 was allowed to stand at 40°C and a relative humidity of 75% for 7 days or longer, and as a result, the Form-III crystal of the p-TsOH salt of the compound A was able to exist stably for 7 days or longer.
# [3] = Stability of crystal form on mechanical stimulus and water (X-ray powder diffraction); settings: pulverized, water-treated, stored at 30°C, relative humidity 90%, tableted (2,000 kgf × 30 min)
# Experimental: X-ray powder diffraction measurement was performed for a crystal (pulverized) obtained by pulverizing the Form-I crystal of the p-TsOH salt of the compound A in a mortar, a crystal (water-treated) obtained by kneading the Form-I crystal of the p-TsOH salt of the compound A after adding water, a sample of the Form-I crystal of the p-TsOH salt of the compound A stored under a humidifying stimulus condition (30°C, relative humidity of 90%), and a sample obtained by tableting the Form-I crystal of the p-TsOH salt of the compound A (2,000 kgf × 30 min). The results are shown in FIG. 24 together with the results of the Form-I crystal of the p-TsOH salt of the compound A not undergoing any treatment (untreated).
# [4] = Relative stability of Form-I to Form-III crystals: pairs stirred in acetone (X-ray powder diffraction); settings: pairs at mass ratio 1:1 in acetone, 30°C, 42 hours
# Experimental: The Form-I crystal and the Form-II crystal of the p-TsOH salt of the compound A, the Form-I crystal and the Form-III crystal of the p-TsOH salt of the compound A, or the Form-II crystal and the Form-III crystal of the p-TsOH salt of the compound A were added to acetone at a mass ratio of 1:1, and the mixture was stirred at 30°C for 42 hours. Then, the crystal form of the p-TsOH salt of the compound A in the solution was examined by X-ray powder diffraction, and as a result, under all the three conditions, each of the crystals of the p-TsOH salt of the compound A in the solution transitioned to a Form-I crystal.
# [5] = Crystal form transition on heating (relative stability of crystal forms)
# Experimental: The Form-V crystal of the p-TsOH salt of the compound A obtained in Comparative Example 1 was heated at 205°C for 10 minutes, and as a result, a Form-III crystal of the p-TsOH salt of the compound A was obtained.
# The Form-VI crystal of the p-TsOH salt of the compound A obtained in Comparative Example 2 was heated at 190°C for 10 minutes, and as a result, a Form-III crystal of the p-TsOH salt of the compound A was obtained.
# [6] = Thermal stability of Form-II crystal (X-ray powder diffraction while heating and cooling); settings: heated to 30°C, 150°C, 200°C, then cooled to 150°C and 30°C
# Experimental: Therefore, for the Form-II crystal of the p-TsOH salt of the compound A, the crystal form was examined by X-ray powder diffraction while increasing the temperature to 30°C, 150°C, and 200°C, and then the crystal form was further examined by X-ray powder diffraction while cooling to 150°C and 30°C.
# [7] = Differential thermal analysis and thermogravimetric analysis (TG/DTA); settings: heating rate 10.0°C/min, nitrogen
# Experimental: TG/DTA in Examples 1 to 11 was measured by TG-8120 (manufactured by Rigaku Corporation) (cell: alumina (open), gas: nitrogen, heating rate: 10.0°C/min, hold temperature: 300°C, hold time: 0 min) unless otherwise specified.
# The results of differential scanning calorimetry (DSC) of the Form-I crystal of the p-TsOH salt of the compound A are shown in FIG. 2. The results of thermophysical property measurement by differential thermal analysis (DTA) and thermogravimetric analysis (TGA) of the Form-I crystal of the p-TsOH salt of the compound A are shown in FIG. 3.
# [8] = Relative stability between crystals: six forms stirred together in DMF/toluene (X-ray powder diffraction); settings: Form-I, III, IV, V, VI, VII, 100 mg each, in DMF/toluene 1:9, stirred at 20°C or 55°C
# Experimental: The crystals of the p-TsOH salt of the compound A prepared in Examples 1 to 3 and Comparative Examples 1 to 3 were each weighed in 100 mg, a total of 600 mg was added to 30 mL of a mixed solvent of DMF and toluene having a volume ratio of 1:9, and the mixture was stirred at 20°C or 55°C. After 3, 4, 7, and 8 days from the start of stirring at 20°C, and after 3 and 4 days from the start of stirring at 55°C, the crystal form of the p-TsOH salt of the compound A in the mixed solution was measured by X-ray powder diffraction.
# [9] = Crystal form transition on standing at 40°C and 75% relative humidity (relative stability); settings: 1/2 acetonitrile solvate crystal at 40°C, relative humidity 75%, 7 days gave Form-IV crystal
# Experimental: About 10 mg of the 1/2 acetonitrile solvate crystal of the p-TsOH salt of the compound A obtained in Example 3 was allowed to stand at 40°C and a relative humidity of 75% for 7 days, and as a result, a Form-IV crystal of the p-TsOH salt of the compound A was obtained.
# [10] = Stability test of Form-I crystal when mixed with excipient (40°C, 75% relative humidity, open system; HPLC and visual inspection); settings: for observation of the color of the crystal: crystal only and all excipient mixtures, visual inspection
# Experimental: The Form-I crystal of the p-TsOH salt of the compound A was mixed with each of various excipients at a mass ratio of 1:1 using a mortar, was allowed to stand in a thermo-hygrostat at a temperature of 40°C and a relative humidity of 75% in an open system for 2 weeks or 1 month, and then evaluated for the presence/absence of decomposition using HPLC and checked for color change by visual inspection. The stability of only the Form-I crystal of the p-TsOH salt of the compound A was also evaluated as a reference. The conditions for HPLC are as follows. • Instrument: SHIMADZU LC-2010 CHT • Column: COSMOSIL 3C18-MSII 4.6×100 mm • Column temperature: 40°C • Mobile phase: Liquid A; MeCN/H2O/MsOH = 600/400/1 Liquid B: MeCN/H2O/MsOH = 900/100/1 • Gradient: 0-8 min; A = 100% • 8-10 min; A to B • 10-20 min; B = 100% • 20-21 min; B to A • Flow rate: 0.5 mL/min • Wavelength: 230 nm
# The results of the percentage (%) of the area of the peak of the Form-I crystal of the p-TsOH salt of the compound A in the observed peaks in HPLC and observation of the color of the crystal are shown in Table 3. According to Table 3, no decomposition of the Form-I crystal of the p-TsOH salt of the compound A was observed under the conditions of mixing with any of the excipients, and no color change occurred. […]
# [11] = Stability of Form-I crystal in various solvents (X-ray powder diffraction); settings: pulverized crystal in methanol, ethyl acetate or methyl ethyl ketone, 40°C, 115 hours
# Experimental: In order to facilitate the transition of the crystal form by a solvent, the Form-I crystal of the p-TsOH salt of the compound A was pulverized in a mortar. The obtained pulverized material was added to methanol, ethyl acetate, or methyl ethyl ketone, and the mixture was stirred at 40°C for 115 hours. After stirring, the crystal form of the p-TsOH salt of the compound A in the solution was examined by X-ray powder diffraction, and the results are shown in FIG. 28.
# [12] = Heating stimulus: 60°C for 24 hours
# [13] = Humidifying stimulus: 30°C, relative humidity 90%, 24 hours
# [14] = Light stimulus: D65 lamp, total intensity 1.2 million lx·hr
smiles,measurement,setting,value
"COCc1nc2c(C(=O)Nc3cccc(Cl)c3C)cc(NC(=O)c3ccccc3C(F)(F)F)cc2[nH]1 [Free form of compound A, N-(3-chloro-2-methylphenyl)-2-(methoxymethyl)-6-({[2-(trifluoromethyl)phenyl]carbonyl}amino)-1H-benzimidazole-4-carboxamide]",percentage (%) of the area of the peak in the observed peaks in HPLC,[1]; [12],99.76%
same,percentage (%) of the area of the peak in the observed peaks in HPLC,[1]; [13],99.76%
same,percentage (%) of the area of the peak in the observed peaks in HPLC,[1]; [14],99.74%
same,percentage (%) of the area of the peak in the observed peaks in HPLC,[1]; No stimulus,99.78%
COCc1nc2c(C(=O)Nc3cccc(Cl)c3C)cc(NC(=O)c3ccccc3C(F)(F)F)cc2[nH]1.Cc1ccc(S(=O)(=O)O)cc1 [N-(3-chloro-2-methylphenyl)-2-(methoxymethyl)-6-({[2-(trifluoromethyl)phenyl]carbonyl}amino)-1H-benzimidazole-4-carboxamide 4-methylbenzenesulfonate],time for which the crystal was able to exist stably,[2],≥ 7 days
same,change in crystal form,[3],no change in crystal form was observed under any of the conditions
same,"most stable form among Form-I, Form-II and Form-III crystals",[4],the most stable form
same,relative stability of crystal forms,[5]; Form-V crystal heated at 205°C for 10 minutes gave Form-III crystal,higher stability than the Form-V crystal
same,relative stability of crystal forms,[5]; Form-VI crystal heated at 190°C for 10 minutes gave Form-III crystal,higher stability than the Form-VI crystal
same,stability against heat,[6],rather stable against heat
same,percentage (%) of the area of the peak in the observed peaks in HPLC,[1]; [12],99.69%
same,percentage (%) of the area of the peak in the observed peaks in HPLC,[1]; [13],99.68%
same,percentage (%) of the area of the peak in the observed peaks in HPLC,[1]; [14],99.72%
same,percentage (%) of the area of the peak in the observed peaks in HPLC,[1]; No stimulus,99.70%
same,change in the color of the crystal,"[1]; after exposure to heating, light or humidifying stimulus",no change in the color of the crystal was observed
same,thermal stability in DTA/TGA,[7],stable without any weight change or endothermic or exothermic heat until decomposition at 200 °C or higher
same,most stable form among the crystals,[8],the most stable form
same,relative stability of crystal forms,[9],higher stability than the 1/2 acetonitrile solvate crystal of the p-TsOH salt of the compound A obtained in Example 3
same,percentage (%) of the area of the peak of the Form-I crystal of the p-TsOH salt of the compound A in the observed peaks in HPLC,"[10]; Crystal only, 1 month at 40°C, relative humidity 75%, open system",99.68%
same,percentage (%) of the area of the peak of the Form-I crystal of the p-TsOH salt of the compound A in the observed peaks in HPLC,"[10]; Crystal only, 2 weeks at 40°C, relative humidity 75%, open system",99.70%
same,percentage (%) of the area of the peak of the Form-I crystal of the p-TsOH salt of the compound A in the observed peaks in HPLC,"[10]; Crystal only, immediately after mixing",99.71%
same,observation of the color of the crystal,"[10]; 1 month at 40°C, relative humidity 75%",No color change under any conditions
same,observation of the color of the crystal,"[10]; 2 weeks at 40°C, relative humidity 75%",No color change under any conditions
same,percentage (%) of the area of the peak of the Form-I crystal of the p-TsOH salt of the compound A in the observed peaks in HPLC,"[10]; mixed 1:1 with Corn starch, 1 month at 40°C, relative humidity 75%",99.66%
same,percentage (%) of the area of the peak of the Form-I crystal of the p-TsOH salt of the compound A in the observed peaks in HPLC,"[10]; mixed 1:1 with Corn starch, 2 weeks at 40°C, relative humidity 75%",99.66%
same,percentage (%) of the area of the peak of the Form-I crystal of the p-TsOH salt of the compound A in the observed peaks in HPLC,"[10]; mixed 1:1 with Corn starch, immediately after mixing",99.71%
same,percentage (%) of the area of the peak of the Form-I crystal of the p-TsOH salt of the compound A in the observed peaks in HPLC,"[10]; mixed 1:1 with Crystalline cellulose, 1 month at 40°C, relative humidity 75%",99.69%
same,percentage (%) of the area of the peak of the Form-I crystal of the p-TsOH salt of the compound A in the observed peaks in HPLC,"[10]; mixed 1:1 with Crystalline cellulose, 2 weeks at 40°C, relative humidity 75%",99.65%
same,percentage (%) of the area of the peak of the Form-I crystal of the p-TsOH salt of the compound A in the observed peaks in HPLC,"[10]; mixed 1:1 with Crystalline cellulose, immediately after mixing",99.73%
same,percentage (%) of the area of the peak of the Form-I crystal of the p-TsOH salt of the compound A in the observed peaks in HPLC,"[10]; mixed 1:1 with D-Mannitol, 1 month at 40°C, relative humidity 75%",99.71%
same,percentage (%) of the area of the peak of the Form-I crystal of the p-TsOH salt of the compound A in the observed peaks in HPLC,"[10]; mixed 1:1 with D-Mannitol, 2 weeks at 40°C, relative humidity 75%",99.70%
same,percentage (%) of the area of the peak of the Form-I crystal of the p-TsOH salt of the compound A in the observed peaks in HPLC,"[10]; mixed 1:1 with D-Mannitol, immediately after mixing",99.63%
same,percentage (%) of the area of the peak of the Form-I crystal of the p-TsOH salt of the compound A in the observed peaks in HPLC,"[10]; mixed 1:1 with Lactose, 1 month at 40°C, relative humidity 75%",99.58%
same,percentage (%) of the area of the peak of the Form-I crystal of the p-TsOH salt of the compound A in the observed peaks in HPLC,"[10]; mixed 1:1 with Lactose, 2 weeks at 40°C, relative humidity 75%",99.74%
same,percentage (%) of the area of the peak of the Form-I crystal of the p-TsOH salt of the compound A in the observed peaks in HPLC,"[10]; mixed 1:1 with Lactose, immediately after mixing",99.64%
same,change in crystal form,[11],no change in crystal form was observed under any of the conditions
